Test results reported in PubChem BioAssay AID540354 (Broad Institute, 2011).
Calls of active or inactive are those of the source.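 How the source made its calls: active means compounds lowering labeled HDL uptake signal, with AC50 at most ten times the top tested dose; inconclusive means flat partial inhibition between 30 and 70% or unreliable fit; inactive means the rest.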

Tests used:
[1] = system: ldlA[mSR-BI] CHO cells, DiI-HDL uptake fluorescence, 3 h; assay: blockers of fluorescent HDL lipid uptake via SR-BI – ldlA[mSR-BI] CHO cells, dry powder samples, dose response (AID 540354)
[2] = as above; conditions: ldlA[mSR-BI] CHO cells, DiI-HDL uptake fluorescence, 3 h; at 35 µM (top of the series)

SMILES | AC50 [1] | activity change, negative = inhibition [2]
O=C(Nc1ccc(-c2nc3ccc(NC(=O)c4ccccc4)cc3[nH]2)cc1)c1ccccc1 | 526 nM | 
COc1ccc(-c2nnn(CC(=O)N(C3CCCCC3)C(C)C(=O)NC3CCCC3)n2)cc1OC (stereo not drawn) | 28 nM | 
O=C(Nc1cc(C(F)(F)F)ccc1Cl)c1ccccc1NS(=O)(=O)c1ccc(Cl)cc1 | 1380 nM | 
C[C@H]1CN([C@@H](C)CO)C(=O)c2cccc(NC(=O)Nc3ccc(F)cc3)c2O[C@@H]1CN(C)Cc1ccc(Cl)c(Cl)c1 | 1390 nM | 
COc1ccc([C@H]2CC(=O)C=C(c3cccc4c3sc3ccccc34)C2)cc1OC | 208 nM | 
O=C(Nc1ccc(-c2nc3cc(NC(=O)c4ccccc4[N+](=O)[O-])ccc3o2)cc1)c1ccccc1[N+](=O)[O-] | < 15 nM | 
O=C(Nc1cc(Cl)ccc1Cl)c1cc(Br)ccc1NS(=O)(=O)c1ccc(Cl)c([N+](=O)[O-])c1 | 426 nM | 
O=C(Nc1ccc(-c2nc3ccc(NC(=O)c4ccccc4[N+](=O)[O-])cc3[nH]2)cc1)c1ccccc1[N+](=O)[O-] | 251 nM | 
Cc1ccc(-c2nnc(N3CCC(C)CC3)c3ccccc23)cc1C | 197 nM | 
CCOc1ccc(NC(=O)CN2CCN(CC(=O)Nc3cc(OC)cc(OC)c3)CC2)cc1 | < 30 nM | 
CCc1sc(N2C(=O)C3C4CCC(C4=C(C)C)C3C2=O)nc1-c1ccccc1 (stereo not drawn) | 754 nM | 
O=C(Nc1ccccc1)c1ccccc1NS(=O)(=O)c1ccc(Cl)cc1 | 47800 nM | 
Nc1ccc(C(=O)Nc2ccc(-c3nc4ccc(NC(=O)c5ccc(N)cc5)cc4[nH]3)cc2)cc1 | 813 nM | 
O=C(Nc1ccccc1Cl)c1ccccc1NS(=O)(=O)c1ccccc1 | 33300 nM | 
O=C(Nc1cc(Cl)ccc1Cl)c1cc(Cl)ccc1NS(=O)(=O)c1ccc(Cl)c([N+](=O)[O-])c1 | 444 nM | 
CCOC(=O)Nc1cccc(NC(=O)c2cc(OC)cc(OC)c2)c1 | 546 nM | 
C[C@@H]1CN([C@H](C)CO)C(=O)c2cc(NC(=O)Cc3cn(C)c4ccccc34)ccc2O[C@H]1CN(C)S(=O)(=O)c1ccc(F)cc1 | 1090 nM | 
C[C@@H]1CN([C@H](C)CO)C(=O)c2cc(NC(=O)Cc3cn(C)c4ccccc34)ccc2O[C@H]1CN(C)S(=O)(=O)c1ccc(Cl)cc1 | 454 nM | 
C[C@H]1CN([C@@H](C)CO)C(=O)c2cccc(N(C)C)c2O[C@@H]1CN(C)Cc1ccc(Cl)c(Cl)c1 | 42400 nM | 
CCOc1ccccc1/C=C/c1onc(C)c1S(=O)(=O)N1CCC(C(=O)NC(C)(C)C)CC1 | 77 nM | 

SMILES | AC50 [1] | activity change, negative = inhibition [2]
C[C@H]1CN([C@@H](C)CO)C(=O)c2cccc(NC(=O)Nc3ccccc3)c2O[C@@H]1CN(C)C | 17300 nM | 
C[C@H]1CN([C@@H](C)CO)C(=O)c2cccc(NC(=O)Nc3ccccc3)c2O[C@@H]1CN(C)Cc1ccccc1 | 13400 nM | 
C[C@H](CO)N1C[C@H](C)[C@H](CN(C)S(=O)(=O)c2ccc(F)cc2)Oc2ccc(NC(=O)CCC(F)(F)F)cc2C1=O | > 35000 nM (inactive) | 
C[C@H]1CN([C@@H](C)CO)C(=O)c2cccc(NC(=O)Nc3ccccc3)c2O[C@@H]1CN(C)Cc1ccc(C(F)(F)F)cc1 | 28000 nM | 
O=C(Nc1ccc(Cl)cc1C(=O)c1ccc(Cl)cc1)c1cc(Br)ccc1NS(=O)(=O)c1ccc(Cl)cc1 | 494 nM | 
Cc1cc(C)c2c(c1)NC(c1cc3c(cc1Br)OCO3)C1CC=CC21 (stereo not drawn) | 505 nM | 
Cc1cc(C(=O)C(C)OC(=O)C2=NNC(=O)CC2)c(C)n1-c1ccc(OC(F)F)cc1 (stereo not drawn) | 1300 nM | 
CCn1c(COc2c(C)cccc2C)nnc1SCC(=O)N1CCN(c2ccccc2)CC1 | 2790 nM | 
Cc1cc(C)n(CC(=O)NC2CCCc3c2cnn3-c2ccc(C)c(C)c2)n1 (stereo not drawn) | 376 nM | 
C[C@H](CO)N1C[C@H](C)[C@H](CN(C)S(=O)(=O)c2ccc(F)cc2)Oc2ccc(NS(C)(=O)=O)cc2C1=O |  | -1.08% (inactive)
COc1cccc(-c2csc(N3CCN(C(=S)Nc4cccc(Cl)c4)CC3)n2)c1 | 1890 nM | 
C[C@H]1CN([C@@H](C)CO)C(=O)c2cccc(NS(C)(=O)=O)c2O[C@@H]1CN(C)Cc1ccc(Cl)c(Cl)c1 | 19400 nM | 
CC(C)(C)NC(=O)N1CCN(c2ncccc2C(F)(F)F)CC1 | 292 nM | 
CCOC(=O)N1CCC(NC(=O)c2ccc3c(c2)N(Cc2ccc(F)cc2)CCS3)CC1 | 32 nM | 
Cc1ccc2oc(-c3cccc(NC(=O)c4cc(-n5cnnc5)ccc4Cl)c3)nc2c1 | 593 nM | 
COC(=O)c1cn(C(=O)c2cccc3ccccc23)c2ccccc12 | 3610 nM | 
CC(OC(=O)c1cccc(NS(C)(=O)=O)c1)C(=O)Nc1ccc(N2CCOCC2)cc1 (stereo not drawn) | 335 nM | 
N#Cc1sc2nc(C3CC3)cc(-c3ccc(Cl)cc3)c2c1N | 1640 nM | 
C[C@@H]1CN([C@H](C)CO)C(=O)c2cc(NC(=O)Cc3cn(C)c4ccccc34)ccc2O[C@H]1CN(C)S(C)(=O)=O | 18200 nM | 
O=C(Nc1ccc(-c2nc3cc(NC(=O)c4ccc(NC(=O)c5cccc6ccccc56)cc4)ccc3[nH]2)cc1)c1ccc(NC(=O)c2cccc3ccccc23)cc1 | < 15 nM | 

SMILES | AC50 [1] | activity change, negative = inhibition [2]
CNC[C@@H]1Oc2ccc(NC(=O)Cc3cn(C)c4ccccc34)cc2C(=O)N([C@H](C)CO)C[C@H]1C | 48000 nM | 
Cc1cc(SC(C)C(=O)Nc2ncc(Cl)cc2Cl)nc2ccccc12 (stereo not drawn) | 491 nM | 
C[C@H](CO)N1C[C@H](C)[C@@H](CN(C)S(=O)(=O)c2ccc(F)cc2)Oc2ccc(NC(=O)Cc3cn(C)c4ccccc34)cc2C1=O | 38500 nM | 
C[C@H]1CN([C@@H](C)CO)C(=O)c2cccc(NC(=O)Nc3ccccc3)c2O[C@@H]1CN(C)Cc1ccc(Cl)c(Cl)c1 | 1500 nM | 
C[C@@H]1CN([C@@H](C)CO)C(=O)c2cc(NC(=O)Cc3cn(C)c4ccccc34)ccc2O[C@H]1CN(C)S(=O)(=O)c1ccc(F)cc1 | 2190 nM | 
C[C@@H]1CN([C@H](C)CO)C(=O)c2cc(NC(=O)Cc3cn(C)c4ccccc34)ccc2O[C@H]1CN(C)S(=O)(=O)c1ccccc1 | 1290 nM | 
O=C(Nc1cccc(NC(=O)c2cc([N+](=O)[O-])ccc2Cl)n1)c1cc([N+](=O)[O-])ccc1Cl | 1960 nM | 
CCC(=O)N1CCc2cc(-c3csc(NC(=O)c4ccco4)n3)ccc21 | 17 nM | 
O=C(Nc1ccc(-c2nc3ccc(NC(=O)c4ccc(Cl)cc4)cc3[nH]2)cc1)c1ccc(Cl)cc1 | < 15 nM | 
CC(C)NC(=O)Nc1cccc2c1O[C@H](CN(C)Cc1ccc(Cl)c(Cl)c1)[C@@H](C)CN([C@@H](C)CO)C2=O | 1050 nM | 
Cc1ccccc1NC(=O)NCC1CCN(c2ccc(S(=O)(=O)N3CCOCC3)cc2)CC1 | 262 nM | 
COc1ccc(OC)c(CCNC(=O)c2ccc3c(c2)N(Cc2ccc(F)cc2)CCS3)c1 | 559 nM | 
C[C@@H]1CN([C@H](C)CO)C(=O)c2cc(NC(=O)Cc3cn(C)c4ccccc34)ccc2O[C@H]1CN(C)C(=O)Nc1ccc(F)cc1 | 3290 nM | 
CC(C)OCCCNC(=O)c1ccc(C2SCC(=O)N2Cc2ccco2)cc1 (stereo not drawn) | 1380 nM | 
C[C@H](CO)N1C[C@H](C)[C@H](CN(C)S(=O)(=O)c2ccc(F)cc2)Oc2ccc(NC(=O)Cc3ccccc3)cc2C1=O |  | -3.31% (inactive)
C[C@@H]1CN([C@H](C)CO)C(=O)c2cc(NC(=O)Cc3cn(C)c4ccccc34)ccc2O[C@@H]1CN(C)S(=O)(=O)c1ccc(F)cc1 | 25700 nM | 
O=C(Nc1ccc(-c2nc3cc(NC(=O)c4ccccc4Cl)ccc3o2)cc1)c1ccccc1Cl | 16 nM | 
CCc1cc2cc3c(cc2nc1SCC(=O)OC(C)C)OCO3 | 79 nM | 
